The target of assay [1] is T1, DDR1 (Homo sapiens, UniProt Q08345). As to the kind of experiment: DDR1 binding assay (LanthaScreen Europium Kinase Binding assay). The note with it: binding assay, 5 nM DDR1, 20 nM Kinase Tracer 178; Ki from IC50 by Cheng-Prusoff; read-out: Ki DDR1. Further details: purchased Carna Biosciences. A digest of the protocol: (§1)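 TR-FRET tracer-displacement format: 665/615 nm emission ratio (340 nm excitation) gave IC50 by 4-parameter fit, then Ki via Cheng-Prusoff. Each kinase at 5 nM with 2 nM Eu-anti-GST antibody and Tracer 178 (DDR1 20 nM, DDR2 10 nM), 1 h, room temperature, HEPES pH 7.5 buffer.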
T1 sequence (Q08345 19-913): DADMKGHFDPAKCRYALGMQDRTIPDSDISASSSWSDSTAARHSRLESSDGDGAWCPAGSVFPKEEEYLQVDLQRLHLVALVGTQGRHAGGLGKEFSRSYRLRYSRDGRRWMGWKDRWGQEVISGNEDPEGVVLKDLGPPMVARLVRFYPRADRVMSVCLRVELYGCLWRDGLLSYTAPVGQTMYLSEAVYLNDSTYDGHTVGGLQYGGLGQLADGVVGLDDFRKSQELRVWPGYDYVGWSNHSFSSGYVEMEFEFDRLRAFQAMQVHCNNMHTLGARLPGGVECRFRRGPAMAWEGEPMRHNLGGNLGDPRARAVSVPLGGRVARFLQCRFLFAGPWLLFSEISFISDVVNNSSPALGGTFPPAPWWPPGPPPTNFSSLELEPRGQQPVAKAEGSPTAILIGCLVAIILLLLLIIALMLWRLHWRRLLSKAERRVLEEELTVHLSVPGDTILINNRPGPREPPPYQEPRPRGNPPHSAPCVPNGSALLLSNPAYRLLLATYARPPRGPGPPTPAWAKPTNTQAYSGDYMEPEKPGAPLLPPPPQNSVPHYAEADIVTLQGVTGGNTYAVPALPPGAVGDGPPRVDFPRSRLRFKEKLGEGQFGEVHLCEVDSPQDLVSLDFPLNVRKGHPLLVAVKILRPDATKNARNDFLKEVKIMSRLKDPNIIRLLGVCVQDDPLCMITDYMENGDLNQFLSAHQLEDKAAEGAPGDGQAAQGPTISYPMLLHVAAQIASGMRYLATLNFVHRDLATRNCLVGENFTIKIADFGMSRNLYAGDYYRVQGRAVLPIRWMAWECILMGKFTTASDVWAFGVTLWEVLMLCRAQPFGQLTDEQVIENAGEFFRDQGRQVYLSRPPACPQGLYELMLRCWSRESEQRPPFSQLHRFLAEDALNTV
On the technique in general: Time-resolved FRET reads energy transfer from a long-lived donor to a nearby acceptor.

The target in a further assay is T2, DDR2 (Homo sapiens, UniProt Q16832).
T2 sequence (Q16832 22-855): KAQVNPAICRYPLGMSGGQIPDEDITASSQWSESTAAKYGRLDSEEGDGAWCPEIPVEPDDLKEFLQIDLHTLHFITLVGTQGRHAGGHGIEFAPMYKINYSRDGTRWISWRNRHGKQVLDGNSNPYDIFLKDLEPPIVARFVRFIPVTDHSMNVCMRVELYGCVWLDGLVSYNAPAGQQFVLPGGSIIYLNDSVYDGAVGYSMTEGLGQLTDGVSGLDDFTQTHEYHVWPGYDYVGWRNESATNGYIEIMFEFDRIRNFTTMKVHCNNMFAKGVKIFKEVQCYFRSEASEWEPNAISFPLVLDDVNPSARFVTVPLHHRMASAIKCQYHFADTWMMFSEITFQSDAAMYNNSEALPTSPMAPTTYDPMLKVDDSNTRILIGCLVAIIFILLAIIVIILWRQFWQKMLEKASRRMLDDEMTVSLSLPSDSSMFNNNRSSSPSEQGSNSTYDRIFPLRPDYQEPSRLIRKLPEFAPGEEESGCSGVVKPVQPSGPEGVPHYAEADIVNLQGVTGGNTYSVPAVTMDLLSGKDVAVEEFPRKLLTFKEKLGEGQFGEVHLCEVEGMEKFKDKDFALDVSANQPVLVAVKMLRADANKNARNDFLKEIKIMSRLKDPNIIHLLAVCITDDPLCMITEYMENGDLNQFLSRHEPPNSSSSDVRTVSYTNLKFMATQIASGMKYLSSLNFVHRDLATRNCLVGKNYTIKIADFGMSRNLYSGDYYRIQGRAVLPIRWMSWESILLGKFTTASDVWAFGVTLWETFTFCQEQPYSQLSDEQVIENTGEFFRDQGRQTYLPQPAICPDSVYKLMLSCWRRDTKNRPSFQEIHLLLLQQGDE
As to the kind of experiment: DDR2 binding assay (LanthaScreen Europium Kinase Binding assay). As to conditions: binding assay, 5 nM DDR2, 10 nM Kinase Tracer 178; Ki from IC50 by Cheng-Prusoff; read-out: Ki DDR2. The arrangement: purchased Life Technologies. A digest of the protocol:
as §1

Assay [2] addresses T1, DDR1. In words: DDR1 cell based assay (PathHunter U2OS DDR1 assay). The arrangement: host or cells: U2OS-DDR1 (PathHunter). As to conditions: U2OS-DDR1 cells, bovine Type II Collagen 20 μg/ml. A digest of the protocol: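 Receptor activation measured by enzyme-fragment complementation luminescence in engineered U2OS cells. Compound added 30 min before overnight challenge with 20 μg/ml bovine collagen II; data scaled between vehicle and collagen-stimulated controls, IC50 derived by four-parameter variable-slope fitting.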

pIC50, pKi: −log10 of the molar value. Some results are limits rather than exact numbers.

In patent US20240391936A1, “TETRAHYDROTHIENO PYRIDINE DERIVATIVES AS DDRS INHIBITORS” (CHIESI FARMACEUTICI S.P.A., priority 2021, published 2024) one finds Ki and IC50 data, which are given here for 18 compounds.

As usually defined, the pKi is −log10 of the Ki, conventionally taken in molar units. By pIC50 is commonly meant the negative decadic logarithm of the IC50, by convention in mol/L. A high value points to a small IC50. For `Cc1ccn2c(C(=O)N3CCc4c(C(=O)Nc5cc(C(C)(C)C)nn5C)csc4C3)cnc2c1` [Example 79, N-(5-tert-butyl-2-methyl-pyrazol-3-yl)-6-(7-methylimidazo[1,2-a]pyridine-3-carbonyl)-5,7-dihydro-4H-thieno[2,3-c]pyridine-3-carboxamide], the pKi on DDR1 [1] and on DDR2 was > 7.60 each time. The same compound had a pIC50 against DDR1 [2] of 7.30 to 7.60.
On to `O=C(Nc1cccc(C(F)(F)F)c1)c1csc2c1CCN(Cc1cnn3cccnc13)C2` [Example 89, 6-(pyrazolo[1,5-a]pyrimidin-3-ylmethyl)-N-(3-(trifluoromethyl)phenyl)-4,5,6,7-tetrahydrothieno[2,3-c]pyridine-3-carboxamide], for which the pKi at DDR1 [1] and on DDR2 was > 7.60 throughout. The pIC50 against DDR1 [2] was > 7.60.
Regarding `CN(C)Cc1ccc2ncc(C(=O)N3CCc4c(C(=O)Nc5cccc(C(F)(F)F)c5)csc4C3)n2c1` [Example 135, 6-(6-((dimethylamino)methyl)imidazo[1,2-a]pyridine-3-carbonyl)-N-(3-(trifluoromethyl)phenyl)-4,5,6,7-tetrahydrothieno[2,3-c]pyridine-3-carboxamide], the pKi on DDR1 [1] is > 7.60; at DDR2, 7.30 to 7.60. The pIC50 against DDR1 [2] is 7.30 to 7.60.
On to `COCCOc1ccn2c(C(=O)N3CCc4c(C(=O)Nc5cccc(C(F)(F)F)c5)csc4C3)cnc2c1` [Example 138, 6-(7-(2-methoxyethoxy)imidazo[1,2-a]pyridine-3-carbonyl)-N-(3-(trifluoromethyl)phenyl)-4,5,6,7-tetrahydrothieno[2,3-c]pyridine-3-carboxamide], for which the negative logarithm of the Ki (pKi) on DDR1 [1] and at DDR2 was > 7.60 each time. In addition, the pIC50 against DDR1 [2] is > 7.60.
Regarding `CC(C)(C)c1cncc(NC(=O)c2csc3c2CCN(C(=O)c2cnc4ccccn24)C3)c1` [Example 117, N-(5-(tert-butyl)pyridin-3-yl)-6-(imidazo[1,2-a]pyridine-3-carbonyl)-4,5,6,7-tetrahydrothieno[2,3-c]pyridine-3-carboxamide], the pKi at DDR1 [1] and on DDR2 was > 7.60 in each case. Also, on DDR1 [2], the pIC50 was > 7.60.
Regarding `CC(C)(C)c1cc(NC(=O)c2csc3c2CCN(C(=O)c2cnc4ccccn24)C3)n(CC(F)(F)F)n1` [Example 40, N-(3-(tert-butyl)-1-(2,2,2-trifluoroethyl)-1H-pyrazol-5-yl)-6-(imidazo[1,2-a]pyridine-3-carbonyl)-4,5,6,7-tetrahydrothieno[2,3-c]pyridine-3-carboxamide], the pKi at DDR1 [1] and at DDR2 was > 7.60 each time. Further, on DDR1 [2], the pIC50 was 7.30 to 7.60.
Turning to `O=C(Nc1cc(CN2CCN(C3COC3)CC2)cc(C(F)(F)F)c1)c1csc2c1CCN(C(=O)c1cnc3ccccn13)C2` [Example 54, 6-(imidazo[1,2-a]pyridine-3-carbonyl)-N-(3-((4-(oxetan-3-yl)piperazin-1-yl)methyl)-5-(trifluoromethyl)phenyl)-4,5,6,7-tetrahydrothieno[2,3-c]pyridine-3-carboxamide], the pKi on DDR1 [1] and on DDR2 was > 7.60 throughout. On DDR1 [2], this compound showed a pIC50 of 7.10 to 7.30.
`O=C(Nc1cncc(OC(F)(F)F)c1)c1csc2c1CCN(C(=O)c1cnc3ccccn13)C2` [Example 186, 6-(imidazo[1,2-a]pyridine-3-carbonyl)-N-(5-(trifluoromethoxy)pyridin-3-yl)-4,5,6,7-tetrahydrothieno[2,3-c]pyridine-3-carboxamide]: the pKi on DDR1 [1] and at DDR2 was > 7.60 in each case. For the same compound, the negative logarithm of the IC50 (pIC50) against DDR1 [2] is > 7.60.
For `N#Cc1cc(NC(=O)c2csc3c2CCN(C(=O)c2cnc4ccccn24)C3)cc(C(F)(F)F)c1` [Example 131, N-(3-cyano-5-(trifluoromethyl)phenyl)-6-(imidazo[1,2-a]pyridine-3-carbonyl)-4,5,6,7-tetrahydrothieno[2,3-c]pyridine-3-carboxamide], the pKi at DDR1 [1] and on DDR2 was > 7.60 throughout. The compound further gave a pIC50 on DDR1 [2] of 7.30 to 7.60.
With `CN1CC2(C1)CN(c1ccc3ncc(C(=O)N4CCc5c(C(=O)Nc6cccc(C(F)(F)F)c6)csc5C4)n3c1)C2` [Example 166, 6-(6-(6-methyl-2,6-diazaspiro[3.3]heptan-2-yl)imidazo[1,2-a]pyridine-3-carbonyl)-N-(3-(trifluoromethyl)phenyl)-4,5,6,7-tetrahydrothieno[2,3-c]pyridine-3-carboxamide], the pKi on DDR1 [1] and on DDR2 was > 7.60 in each case. This compound gave a pIC50 on DDR1 [2] of 7.10 to 7.30.
Take `CN(C)[C@@H]1CCN(Cc2cc(NC(=O)c3csc4c3CCN(C(=O)c3cnc5ccccn35)C4)cc(C(F)(F)F)c2)C1` [Example 45, (R)-N-(3-((3-(dimethylamino)pyrrolidin-1-yl)methyl)-5-(trifluoromethyl)-phenyl)-6-(imidazo[1,2-a]pyridine-3-carbonyl)-4,5,6,7-tetrahydrothieno[2,3-c]pyridine-3-carboxamide]: the pKi at DDR1 [1] and on DDR2 was > 7.60 throughout. The pIC50 against DDR1 [2] was 7.30 to 7.60.
For `CC(C)Cc1cc(NC(=O)c2csc3c2CCN(C(=O)c2cnc4ccccn24)C3)n(C)n1` [Example 43, 6-(imidazo[1,2-a]pyridine-3-carbonyl)-N-(3-isobutyl-1-methyl-1H-pyrazol-5-yl)-4,5,6,7-tetrahydrothieno[2,3-c]pyridine-3-carboxamide], the pKi at DDR1 [1] and at DDR2 was > 7.60 throughout. For the same compound, the pIC50 on DDR1 [2] was 7.30 to 7.60.
On to `O=C(Nc1cc(CN2CCC23COC3)cc(C(F)(F)F)c1)c1csc2c1CCN(C(=O)c1cnc3ccccn13)C2` [Example 49, N-(3-((6-oxa-1-azaspiro[3.3]heptan-1-yl)methyl)-5-(trifluoromethyl)phenyl)-6-(imidazo[1,2-a]pyridine-3-carbonyl)-4,5,6,7-tetrahydrothieno[2,3-c]pyridine-3-carboxamide], for which the pKi at DDR1 [1] and on DDR2 was > 7.60 throughout. Moreover, on DDR1 [2], the pIC50 was > 7.60.
On to `CN(C)C1CCN(Cc2cc(NC(=O)c3csc4c3CCN(C(=O)c3cnc5ccccn35)C4)cc(C(F)(F)F)c2)CC1` [Example 48, N-(3-((4-(dimethylamino)piperidin-1-yl)methyl)-5-(trifluoromethyl)phenyl)-6-(imidazo[1,2-a]pyridine-3-carbonyl)-4,5,6,7-tetrahydrothieno[2,3-c]pyridine-3-carboxamide], for which the pKi was > 7.60 at DDR1 [1] and 7.30 to 7.60 on DDR2. Moreover, the pIC50 against DDR1 [2] was 7.10 to 7.30.
For `CC(C)(C)c1cc(NC(=O)c2csc3c2CCN(C(=O)c2cnc4ccccn24)C3)on1` [Example 34, N-(3-(tert-butyl)isoxazol-5-yl)-6-(imidazo[1,2-a]pyridine-3-carbonyl)-4,5,6,7-tetrahydrothieno[2,3-c]pyridine-3-carboxamide], in that order: > 7.60, > 7.60 and > 7.60.
For `O=C(Nc1cccc(C(F)(F)F)c1)c1csc2c1CCN(Cc1cnc3cccnn13)C2` [Example 87, 6-(imidazo[1,2-b]pyridazin-3-ylmethyl)-N-(3-(trifluoromethyl)phenyl)-4,5,6,7-tetrahydrothieno[2,3-c]pyridine-3-carboxamide], the pKi at DDR1 [1] and on DDR2 was > 7.60 in each case. At DDR1 [2], this compound gave a negative-log IC50 (pIC50) of 7.10 to 7.30.
On to `CN(C)Cc1ccc(NC(=O)c2csc3c2CCN(C(=O)c2cnc4ccccn24)C3)cc1C(F)(F)F` [Example 27], for which the pKi on DDR1 [1] and on DDR2 was > 7.60 each time. In addition, on DDR1 [2], the pIC50 was 7.30 to 7.60.
`O=C(Nc1cccc(C(F)(F)F)c1)c1csc2c1CCN(C(=O)c1cnc3n1CCOC3)C2` [Example 96, 6-(5,6-dihydro-8H-imidazo[2,1-c][1,4]oxazine-3-carbonyl)-N-(3-(trifluoromethyl)phenyl)-4,5,6,7-tetrahydrothieno[2,3-c]pyridine-3-carboxamide]: the pKi on DDR1 [1] and at DDR2 was > 7.60 each time. For the same compound, the negative logarithm of the IC50 (pIC50) against DDR1 [2] is > 7.60.
